Laboratory results as given in patent publication US10208037B2, “Toll-like receptor-7 and -8 modulatory 1H imidazoquinoline derived compounds” (The University of Kansas, priority 2011, dated 2019).

What was measured:
[1] = tested on: human PBMCs; test: Proinflammatory cytokine induction in human PBMCs; type: cell-based
Experimental: (§1) Aliquots (10^6 cells in 100 μL) of hPBMCs isolated from blood obtained from healthy human donors after informed consent by conventional Ficoll-Hypaque gradient centrifugation were stimulated for 12 h with graded concentrations of test compounds. The supernatant was isolated by centrifugation, diluted 1:20, and cytokines and chemokines were assayed in triplicate using analyte-specific cytokine/chemokine bead array assays as reported by us previously.^74

[2] = tested on: human PBMCs; test: Immunoassays for IFN-α, IFN-γ, IL-12 and IL-18 in human PBMCs; type: cell-based
Experimental: Fresh human peripheral blood mononuclear cells (PBMC) were isolated from human blood obtained by venipuncture with informed consent and as per institutional guidelines on Ficoll-Hypaque gradients as described elsewhere.^53 Aliquots of PBMCs (10^5 cells in 100 µL/well) were stimulated for 12 h with graded concentrations of test compounds. Supernatants were isolated by centrifugation, diluted 1:20, and were assayed in triplicates using a high-sensitivity analyte-specific ELISA kits (PBL Interferon Source, Piscataway, N.J. and R&D Systems, Inc., Minneapolis, Minn.).

[3] = molecular target: T1, TLR7 (Homo sapiens, UniProt Q9NYK1); test: TLR7 reporter gene assay (NF-κB induction, HEK-Blue-7 cells), agonism; type: cell-based
T1 construct: expressed in transfected cells; host or cells: HEK293 (HEK-Blue-7 cells)
T1 sequence (Q9NYK1 27-1049): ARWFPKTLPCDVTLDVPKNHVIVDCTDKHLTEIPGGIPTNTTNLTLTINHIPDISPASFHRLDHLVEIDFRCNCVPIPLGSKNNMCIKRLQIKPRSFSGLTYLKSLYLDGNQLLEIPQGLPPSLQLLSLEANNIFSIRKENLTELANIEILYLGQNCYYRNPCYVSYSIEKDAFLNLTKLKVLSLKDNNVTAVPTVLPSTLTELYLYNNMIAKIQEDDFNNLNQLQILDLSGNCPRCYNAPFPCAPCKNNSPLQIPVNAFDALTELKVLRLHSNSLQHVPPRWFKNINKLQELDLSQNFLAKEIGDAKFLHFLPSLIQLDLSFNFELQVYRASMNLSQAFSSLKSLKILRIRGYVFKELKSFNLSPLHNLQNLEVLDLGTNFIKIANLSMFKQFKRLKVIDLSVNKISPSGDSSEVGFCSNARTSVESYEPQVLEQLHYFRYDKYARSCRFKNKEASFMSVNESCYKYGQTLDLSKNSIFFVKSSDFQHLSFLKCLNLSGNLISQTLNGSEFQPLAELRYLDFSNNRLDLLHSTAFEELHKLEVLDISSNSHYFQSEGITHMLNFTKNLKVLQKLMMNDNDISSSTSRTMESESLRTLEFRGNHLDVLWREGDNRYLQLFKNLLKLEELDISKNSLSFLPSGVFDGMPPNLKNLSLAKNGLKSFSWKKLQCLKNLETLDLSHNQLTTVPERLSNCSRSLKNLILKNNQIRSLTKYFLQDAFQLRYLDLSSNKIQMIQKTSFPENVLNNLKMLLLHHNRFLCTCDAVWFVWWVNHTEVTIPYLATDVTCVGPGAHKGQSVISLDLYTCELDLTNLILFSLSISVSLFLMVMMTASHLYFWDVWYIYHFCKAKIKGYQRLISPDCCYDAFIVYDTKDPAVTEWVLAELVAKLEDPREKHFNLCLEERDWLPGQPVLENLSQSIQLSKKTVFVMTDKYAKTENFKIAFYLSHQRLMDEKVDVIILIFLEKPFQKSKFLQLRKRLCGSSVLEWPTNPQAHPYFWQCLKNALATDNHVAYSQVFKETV
Text: (§2) NF-κB induction: The induction of NF-κB was quantified using HEK-Blue-7 cells and HEK-Blue-8 cells as previously described by us.^8,24 HEK293 cells were stably transfected with human TLR7 (or human TLR8), MD2, and secreted alkaline phosphatase (sAP), and were maintained in HEK-Blue™ Selection medium containing zeocin and normocin. Stable expression of secreted alkaline phosphatase (sAP) under control of NF-κB/AP-1 promoters is inducible by the TLR7 (or TLR8) agonists, and extracellular sAP in the supernatant is proportional to NF-κB induction. HEK-Blue cells were incubated at a density of […] in a volume of 80 μL/well, in 384-well, flat-bottomed, cell culture-treated microtiter plates until confluency was achieved, and subsequently graded concentrations of stimuli. sAP was assayed spectrophotometrically using an alkaline phosphatase-specific chromogen (present in HEK-detection medium as supplied by the vendor) at 620 nm.
(§3) The induction of NF-κB was quantified using HEK-Blue-3, HEK-Blue-7 and HEK-Blue-8 cells as previously described by us.^8,24,51 HEK293 cells were stably transfected with human TLR3 (or human TLR7 or human TLR8), MD2, and secreted alkaline phosphatase (sAP), and were maintained in HEK-Blue™ Selection medium containing zeocin and normocin. Stable expression of secreted alkaline phosphatase (sAP) under control of NF-κB/AP-1 promoters is inducible by the TLR3 (or TLR7 or TLR8) agonists, and extracellular sAP in the supernatant is proportional to NF-κB induction. HEK-Blue cells were incubated at a density of ˜10^5 cells/ml in a volume of 80 μl/well, in 384-well, flat-bottomed, cell culture-treated microtiter plates until confluency was achieved, and subsequently graded concentrations of stimuli. sAP was assayed spectrophotometrically using an alkaline phosphatase-specific chromogen (present in HEK-detection medium as supplied by the vendor) at 620 nm.

[4] = molecular target: T2, TLR8 (Homo sapiens, UniProt Q9NR97); test: TLR8 reporter gene assay (NF-κB induction, HEK-Blue-8 cells), agonism; type: cell-based
T2 construct: expressed in transfected cells; host or cells: HEK293 (HEK-Blue-8 cells)
T2 sequence (Q9NR97 27-1041): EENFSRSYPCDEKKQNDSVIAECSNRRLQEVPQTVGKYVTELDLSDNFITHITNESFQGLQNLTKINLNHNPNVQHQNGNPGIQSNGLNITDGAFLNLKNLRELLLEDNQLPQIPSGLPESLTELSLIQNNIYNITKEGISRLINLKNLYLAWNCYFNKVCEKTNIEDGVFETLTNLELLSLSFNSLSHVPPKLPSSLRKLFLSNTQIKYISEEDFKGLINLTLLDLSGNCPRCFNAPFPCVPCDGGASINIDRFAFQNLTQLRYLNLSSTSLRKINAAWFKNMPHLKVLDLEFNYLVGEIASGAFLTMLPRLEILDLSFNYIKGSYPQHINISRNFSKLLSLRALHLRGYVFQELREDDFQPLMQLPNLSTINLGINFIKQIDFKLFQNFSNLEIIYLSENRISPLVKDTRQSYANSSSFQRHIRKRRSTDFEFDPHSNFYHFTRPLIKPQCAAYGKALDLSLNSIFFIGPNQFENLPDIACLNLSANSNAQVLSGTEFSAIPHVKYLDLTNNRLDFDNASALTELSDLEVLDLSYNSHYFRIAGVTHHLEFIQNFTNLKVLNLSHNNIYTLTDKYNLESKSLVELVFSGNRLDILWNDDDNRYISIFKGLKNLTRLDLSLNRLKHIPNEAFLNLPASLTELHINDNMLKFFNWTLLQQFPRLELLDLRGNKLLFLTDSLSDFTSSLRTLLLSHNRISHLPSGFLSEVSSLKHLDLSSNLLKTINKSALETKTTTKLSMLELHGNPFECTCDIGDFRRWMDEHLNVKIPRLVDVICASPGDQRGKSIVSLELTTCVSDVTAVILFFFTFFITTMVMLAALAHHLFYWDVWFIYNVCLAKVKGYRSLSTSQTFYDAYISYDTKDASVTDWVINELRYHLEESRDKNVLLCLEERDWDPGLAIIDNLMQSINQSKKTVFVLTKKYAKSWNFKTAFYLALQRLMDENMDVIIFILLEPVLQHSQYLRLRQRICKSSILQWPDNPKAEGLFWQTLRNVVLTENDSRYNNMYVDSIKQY
Text: as §2, §3

[5] = tested on: rabbits; test: Rabbit immunization model using bovine α-lactalbumin as model subunit vaccine; conditions: in vivo
Text: FIG. 18 illustrates ratios of Immune-1/pre-immune (after primary vaccination) and Immune-2/pre-immune (after Boost-1) anti-α-lactalbumin IgG titers in rabbits. FIGS. 19A and 19B are graphs illustrating TLR7 and TLR8 agonistic activities of the imidazoquinoline dimers in human TLR-specific reporter gene assays.
FIG. 27 illustrates ratios of immune-1/pre-immune (after primary vaccination) and Immune-2/pre-immune (after Boost-1) anti-α-lactalbumin IgG titers in rabbits using the hybrids as adjuvants. Also shown are the IMDQ (7d) and PAM2CS, as well as IMDQ (7d)+PAM2CS mixture controls.

[6] = tested on: human peripheral blood mononuclear cells; test: IFN-α induction in human PBMCs (ELISA); type: cell-based; conditions: hPBMC, 12 h
Experimental: FIG. 21 is a graph illustrating IFN-α induction by select dimers in human peripheral blood mononuclear cells. IFN-α was assayed by analyte specific ELISA after incubation of hPBMCs with graded concentrations of the test compound for 12 h.
as §1, with “IFN-α was” for “cytokines and chemokines were”, “a high-sensitivity human IFN-α-specific ELISA kit (PBL Interferon Source, Piscataway, N.J.).” for “analyte-specific cytokine/chemokine bead array assays as reported by us previously.^74”

[7] = Aqueous solubility; type: physicochemical
[8] = tested on: outbred CF-1 mice; test: Immunization of CF-1 mice with bovine α-lactalbumin, antibody ELISA; type: in vivo; conditions: relative to α-lactalbumin alone; boost Day 14, bled Day 21
Experimental: FIGS. 10A-10D are graphs illustrating immunoglobulin profiles in outbred CF-1 mice immunized on Day 0 with 50 μg/animal of α-lactalbumin, or α-lactalbumin covalently coupled with 5 equivalents of 8, or α-lactalbumin mixed with 5 equivalents of 7d. Animals (5 per cohort) were boosted once on Day 14 exactly as mentioned above, and bled on Day 21. α-lactalbumin-specific immunoglobulin levels were quantified by standard antibody-capture ELISA, performed in liquid handler-assisted 384-well format.
FIG. 11 is a graph illustrating affinity IgG ELISA showing antibody titer as a function of chaotrope (NaSCN) concentration. IgG titers on the ordinate axis were calculated from absorbance values at 0.25 (which corresponds to […] above that of naïve controls).
All experiments were performed in accordance with animal care protocols approved by the University of Kansas IACUC Committee. […]
A precision 2000 liquid handler (Bio-Tek, Winooski, Vt.) was used for all serial dilution and reagent addition steps, and a Bio-Tek ELx405 384-well plate washer was employed for plate washes; 100 mM phosphate-buffered saline (PBS) pH 7.4, containing 0.1% Tween-20 was used as wash buffer. […] Plates were then read at 450 nm using a SpectraMax M4 device (Molecular Devices, Sunnyvale, Calif.). […]

Compound	Proinflammatory cytokine induction (in words) [1]	IFN-γ induction (in words) [2]	TLR7-agonistic activity (in words) [3]	TLR8-agonistic activity (in words) [4]	Adjuvantic activity, anti-α-lactalbumin IgG titers in rabbits [5]	EC50 ([3]; Table 1, ND = not detected, read-out: TLR7 Agonism) [nM]	IFN-α induction (in words) [6]	EC50 ([4]; Table 1, ND = not detected) [nM]	Aqueous solubility (in words) [7]	α-lactalbumin-specific antibody titers [8]	Th1 bias (induction of IFN-α, IFN-γ, IL-12, IL-18) [2]
CCCCc1nc2c(N)nc3ccccc3c2n1Cc1ccc(CNC(=O)Cn2cc(CN(CCN(CCN(Cc3cn(CC(=O)NCc4ccc(Cn5c(CCCC)nc6c(N)nc7ccccc7c65)cc4)nn3)Cc3cn(CC(=O)NCc4ccc(Cn5c(CCCC)nc6c(N)nc7ccccc7c65)cc4)nn3)CCN(Cc3cn(CC(=O)NCc4ccc(Cn5c(CCCC)nc6c(N)nc7ccccc7c65)cc4)nn3)Cc3cn(CC(=O)NCc4ccc(Cn5c(CCCC)nc6c(N)nc7ccccc7c65)cc4)nn3)Cc3cn(CC(=O)NCc4ccc(Cn5c(CCCC)nc6c(N)nc7ccccc7c65)cc4)nn3)nn2)cc1 [Compound 43]	absence of proinflammatory cytokine induction	selective and complete loss of TLR8-associated IFN-γ	retaining in large measure the TLR7-agonistic activity	loss of TLR8-stimulatory activity	better than 7d						
CCCCc1nc2c(N)nc3ccccc3c2n1Cc1ccc(CNC(=O)CCCCCCCCCCC(=O)NCc2ccc(Cn3c(CCCC)nc4c(N)nc5ccccc5c43)cc2)cc1 [Compound 52c, N^1,N^12-bis(4-((4-amino-2-butyl-1H-imidazo[4,5-c]quinolin-1-yl)methyl)benzyl)dodecane Diamide]				displayed both TLR7 and TLR8 agonism		170	most potent	4780			
CCCCc1nc2c(N)nc3ccccc3c2n1Cc1ccc(CN)cc1 [Compound 7d, 1-(4-(Aminomethyl)benzyl)-2-butyl-1H-imidazo[4,5-c]quinolin-4-amine]									excellent	dramatic enhancements in antibody titers	prominent Th1 bias
